Here are results for six molecules from PMC8490825 (Frontiers in Molecular Biosciences, 2021).

Experiment [1] addresses hNaV1.1 (Homo sapiens, UniProt P35498). Description: cell-based. The experiment is classed as cell-based.
For experiment [2], the target named is hNaV1.7 (Homo sapiens, UniProt Q15858). Briefly: cell-based. The experiment is classed as cell-based.
Experiment [3] deals with hNaV1.3 (Homo sapiens, UniProt Q9NY46). Briefly: cell-based. The following applies: N = 3-4; SEM; read-out: IC50 ± SEM, NaV1.3.
Experiment [4] deals with hNaV1.5 (Homo sapiens, UniProt Q14524). Briefly: cell-based. The class given is cell-based.
The target of experiment [5] is hNaV1.4 (Homo sapiens, UniProt P35499). Description: cell-based. The class given is cell-based.
Chain of hNaV1.4 (P35499 whole entry, looked up): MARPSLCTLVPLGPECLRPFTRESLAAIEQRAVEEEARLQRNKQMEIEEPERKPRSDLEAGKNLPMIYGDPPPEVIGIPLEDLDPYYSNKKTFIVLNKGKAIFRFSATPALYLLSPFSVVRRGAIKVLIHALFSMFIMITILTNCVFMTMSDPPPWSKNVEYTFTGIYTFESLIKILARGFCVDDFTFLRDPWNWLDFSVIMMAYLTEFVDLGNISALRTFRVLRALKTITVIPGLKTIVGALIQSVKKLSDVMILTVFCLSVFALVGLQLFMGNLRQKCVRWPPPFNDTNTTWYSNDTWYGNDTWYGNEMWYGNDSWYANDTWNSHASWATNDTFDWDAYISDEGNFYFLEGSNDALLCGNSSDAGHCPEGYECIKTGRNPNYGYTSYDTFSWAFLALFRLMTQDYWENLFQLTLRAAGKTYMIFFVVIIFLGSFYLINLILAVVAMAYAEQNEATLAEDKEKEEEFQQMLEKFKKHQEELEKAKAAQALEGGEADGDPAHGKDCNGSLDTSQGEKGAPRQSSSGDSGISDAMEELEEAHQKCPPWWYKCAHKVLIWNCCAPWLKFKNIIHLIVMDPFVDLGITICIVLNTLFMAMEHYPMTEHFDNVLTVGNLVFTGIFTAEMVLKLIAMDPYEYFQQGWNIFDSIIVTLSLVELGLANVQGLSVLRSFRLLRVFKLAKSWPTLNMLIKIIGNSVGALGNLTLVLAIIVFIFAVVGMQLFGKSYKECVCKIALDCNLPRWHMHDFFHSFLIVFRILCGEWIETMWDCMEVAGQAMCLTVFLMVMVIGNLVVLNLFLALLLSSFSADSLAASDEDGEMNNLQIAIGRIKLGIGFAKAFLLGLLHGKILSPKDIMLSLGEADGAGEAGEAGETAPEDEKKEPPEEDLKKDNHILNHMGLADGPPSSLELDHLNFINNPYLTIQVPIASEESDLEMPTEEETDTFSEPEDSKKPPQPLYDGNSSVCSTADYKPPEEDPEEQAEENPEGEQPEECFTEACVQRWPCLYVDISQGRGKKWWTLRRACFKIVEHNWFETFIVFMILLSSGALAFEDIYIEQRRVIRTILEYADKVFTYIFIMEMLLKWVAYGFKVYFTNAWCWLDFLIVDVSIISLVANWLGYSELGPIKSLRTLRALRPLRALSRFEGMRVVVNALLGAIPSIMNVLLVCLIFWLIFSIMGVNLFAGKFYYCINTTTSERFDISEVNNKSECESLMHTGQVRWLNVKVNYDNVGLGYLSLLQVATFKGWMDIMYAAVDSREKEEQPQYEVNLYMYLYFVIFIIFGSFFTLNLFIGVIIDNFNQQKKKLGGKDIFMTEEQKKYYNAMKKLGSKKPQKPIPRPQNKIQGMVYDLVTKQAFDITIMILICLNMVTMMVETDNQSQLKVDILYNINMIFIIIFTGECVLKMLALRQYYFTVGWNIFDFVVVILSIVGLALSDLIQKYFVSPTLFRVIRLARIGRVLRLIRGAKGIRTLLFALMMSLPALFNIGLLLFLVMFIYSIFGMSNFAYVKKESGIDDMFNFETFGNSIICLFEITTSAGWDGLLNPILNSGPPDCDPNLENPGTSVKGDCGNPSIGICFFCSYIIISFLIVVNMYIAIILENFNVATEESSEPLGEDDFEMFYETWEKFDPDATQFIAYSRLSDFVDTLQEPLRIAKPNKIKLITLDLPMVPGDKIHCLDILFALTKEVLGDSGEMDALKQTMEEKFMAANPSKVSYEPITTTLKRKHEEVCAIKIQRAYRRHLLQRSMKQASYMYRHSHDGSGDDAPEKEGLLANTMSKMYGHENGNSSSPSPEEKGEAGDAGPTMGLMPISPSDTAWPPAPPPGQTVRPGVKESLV
Experiment [6] has as its target hNaV1.2 (Homo sapiens, UniProt Q99250). Briefly: cell-based. The settings on record: N = 3-6; SEM; read-out: IC50 ± SEM, NaV1.2.
Experiment [7] has as its target hNaV1.6 (Homo sapiens, UniProt Q9UQD0). Description: cell-based. The settings on record: N = 4; SEM; read-out: IC50 ± SEM, NaV1.6.
Experiment [8] relates to rKV2.1/hNaV1.1 chimera containing the paddles S3–S4 from DII from NaV1.1. The experiment is classed as cell-based.
For experiment [9], the system named is endogenous K+ currents from non-transfected HEK293 cells. The experiment is classed as cell-based.

Structures are written as SMILES. Read-outs that look alike come from different tables or passages of the source. Where a SMILES comes first, the peptide text is derived from it. Bridges are numbered along the chain shown (N, C = ends). Some results are limits rather than exact numbers.

Chain of hNaV1.7 (Q15858 whole entry, looked up): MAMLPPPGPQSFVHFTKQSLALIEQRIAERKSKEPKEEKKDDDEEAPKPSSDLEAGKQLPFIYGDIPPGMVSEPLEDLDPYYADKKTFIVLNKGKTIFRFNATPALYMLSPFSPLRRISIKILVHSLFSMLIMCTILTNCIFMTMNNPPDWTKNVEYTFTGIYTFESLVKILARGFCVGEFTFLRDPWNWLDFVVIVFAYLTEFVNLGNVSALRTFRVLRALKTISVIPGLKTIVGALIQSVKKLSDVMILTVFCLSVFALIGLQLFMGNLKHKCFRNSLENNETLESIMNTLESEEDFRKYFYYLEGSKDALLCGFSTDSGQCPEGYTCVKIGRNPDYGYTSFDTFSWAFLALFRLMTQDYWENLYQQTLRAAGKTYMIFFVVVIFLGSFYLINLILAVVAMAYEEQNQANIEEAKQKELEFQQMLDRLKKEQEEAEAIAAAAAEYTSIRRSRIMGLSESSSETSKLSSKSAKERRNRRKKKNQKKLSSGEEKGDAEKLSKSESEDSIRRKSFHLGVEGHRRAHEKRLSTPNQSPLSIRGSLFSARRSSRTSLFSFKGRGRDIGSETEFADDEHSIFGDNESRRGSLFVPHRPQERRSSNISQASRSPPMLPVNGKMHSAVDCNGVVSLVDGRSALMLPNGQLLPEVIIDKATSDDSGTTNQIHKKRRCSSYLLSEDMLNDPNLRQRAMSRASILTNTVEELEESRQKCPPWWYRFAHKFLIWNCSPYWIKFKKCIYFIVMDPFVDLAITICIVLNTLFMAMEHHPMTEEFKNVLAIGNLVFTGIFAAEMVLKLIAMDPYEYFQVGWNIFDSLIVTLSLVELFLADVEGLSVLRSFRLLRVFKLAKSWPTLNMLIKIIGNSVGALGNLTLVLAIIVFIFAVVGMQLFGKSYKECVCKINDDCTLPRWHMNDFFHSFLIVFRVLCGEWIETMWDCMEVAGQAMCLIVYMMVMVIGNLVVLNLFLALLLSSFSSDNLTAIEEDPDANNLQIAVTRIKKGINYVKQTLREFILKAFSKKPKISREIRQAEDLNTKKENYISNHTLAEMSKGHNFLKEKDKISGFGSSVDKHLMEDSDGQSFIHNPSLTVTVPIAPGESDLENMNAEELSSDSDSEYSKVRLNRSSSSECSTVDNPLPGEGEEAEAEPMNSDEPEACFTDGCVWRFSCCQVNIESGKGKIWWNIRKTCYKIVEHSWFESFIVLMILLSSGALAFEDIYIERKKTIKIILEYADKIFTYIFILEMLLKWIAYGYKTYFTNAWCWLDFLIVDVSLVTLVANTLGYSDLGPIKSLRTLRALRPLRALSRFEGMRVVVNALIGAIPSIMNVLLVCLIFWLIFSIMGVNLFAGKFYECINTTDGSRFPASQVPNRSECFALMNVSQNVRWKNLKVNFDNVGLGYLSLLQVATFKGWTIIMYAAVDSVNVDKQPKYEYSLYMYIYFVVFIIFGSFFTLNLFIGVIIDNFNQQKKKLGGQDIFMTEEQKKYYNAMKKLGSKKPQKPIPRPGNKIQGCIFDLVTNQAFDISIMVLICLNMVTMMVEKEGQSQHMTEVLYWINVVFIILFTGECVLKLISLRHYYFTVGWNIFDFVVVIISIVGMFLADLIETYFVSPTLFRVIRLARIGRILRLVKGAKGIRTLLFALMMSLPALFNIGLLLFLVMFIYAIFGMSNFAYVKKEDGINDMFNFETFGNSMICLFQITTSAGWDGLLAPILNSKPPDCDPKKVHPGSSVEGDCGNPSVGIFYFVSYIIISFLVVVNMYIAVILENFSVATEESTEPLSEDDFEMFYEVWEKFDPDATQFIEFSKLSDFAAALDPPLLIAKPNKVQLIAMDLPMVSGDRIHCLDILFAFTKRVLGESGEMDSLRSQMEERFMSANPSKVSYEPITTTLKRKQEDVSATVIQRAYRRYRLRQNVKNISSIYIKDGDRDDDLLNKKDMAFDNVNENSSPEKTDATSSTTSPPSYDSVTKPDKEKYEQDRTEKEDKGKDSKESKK

In the case of `CSCC[C@@H]1NC(=O)CNC(=O)[C@H](CC(C)C)NC(=O)[C@@H](NC(=O)[C@H](CC(=O)O)NC(=O)[C@H](CC(=O)O)NC(=O)CN)CSSC[C@@H]2NC(=O)[C@@H]3CSSC[C@@H](C(=O)N[C@@H](CCCCN)C(=O)N[C@@H](Cc4ccc(O)cc4)C(=O)N[C@@H](C)C(=O)N[C@@H](CC(C)C)C(=O)N[C@@H](Cc4c[nH]c5ccccc45)C(=O)O)NC(=O)[C@H](Cc4c[nH]c5ccccc45)NC(=O)[C@H](CCC(N)=O)NC(=O)[C@H](CC(=O)O)NC(=O)[C@H](CCCCN)NC(=O)[C@H](CCCNC(=N)N)NC(=O)[C@H](CO)NC(=O)[C@H](CSSC[C@H](NC(=O)[C@H](CO)NC(=O)[C@H](CO)NC(=O)[C@H](Cc4ccccc4)NC1=O)C(=O)N[C@@H](CC(=O)O)C(=O)N1CCC[C@H]1C(=O)N[C@@H](CC(N)=O)C(=O)N[C@@H](CC(N)=O)C(=O)N[C@@H](CC(=O)O)C(=O)N[C@@H](CCCCN)C(=O)N3)NC(=O)[C@H](CCCCN)NC(=O)[C@H](CCCNC(=N)N)NC(=O)[C@H](CC(N)=O)NC(=O)[C@@H]1CCCN1C2=O` [Peptide Q33A] (H-GDDCLGMFSSCDPNNDKCCPNRKCSRKDQWCKYALW-OH; disulfide 4-19, 11-24, 18-31), the IC50 in experiment [1] came to 163 nM; in experiment [2], 99 nM.
`CSCC[C@@H]1NC(=O)CNC(=O)[C@H](CC(C)C)NC(=O)[C@@H](NC(=O)[C@H](CC(=O)O)NC(=O)[C@H](CC(=O)O)NC(=O)CN)CSSC[C@@H]2NC(=O)[C@@H]3CSSC[C@@H](C(=O)N[C@@H](CCCCN)C(=O)N[C@@H](Cc4ccc(O)cc4)C(=O)N[C@@H](CCC(N)=O)C(=O)N[C@@H](CC(C)C)C(=O)N[C@@H](Cc4c[nH]c5ccccc45)C(=O)O)NC(=O)[C@H](Cc4c[nH]c5ccccc45)NC(=O)[C@H](CCC(N)=O)NC(=O)[C@H](CC(=O)O)NC(=O)[C@H](CCCCN)NC(=O)[C@H](CCCNC(=N)N)NC(=O)[C@H](C)NC(=O)[C@H](CSSC[C@H](NC(=O)[C@H](CO)NC(=O)[C@H](CO)NC(=O)[C@H](Cc4ccccc4)NC1=O)C(=O)N[C@@H](CC(=O)O)C(=O)N1CCC[C@H]1C(=O)N[C@@H](CC(N)=O)C(=O)N[C@@H](CC(N)=O)C(=O)N[C@@H](CC(=O)O)C(=O)N[C@@H](CCCCN)C(=O)N3)NC(=O)[C@H](CCCCN)NC(=O)[C@H](CCCNC(=N)N)NC(=O)[C@H](CC(N)=O)NC(=O)[C@@H]1CCCN1C2=O` [Peptide S24A] (H-GDDCLGMFSSCDPNNDKCCPNRKCARKDQWCKYQLW-OH; disulfide 4-19, 11-24, 18-31): the IC50 in experiment [1] was more than 1000 nM; in experiment [2], 920 nM.
The corresponding values for `CSCC[C@@H]1NC(=O)CNC(=O)[C@H](CC(C)C)NC(=O)[C@@H](NC(=O)[C@H](CC(=O)O)NC(=O)[C@H](CC(=O)O)NC(=O)CN)CSSC[C@@H]2NC(=O)[C@@H]3CSSC[C@@H](C(=O)N[C@@H](CCCCN)C(=O)N[C@@H](Cc4ccc(O)cc4)C(=O)N[C@@H](CCC(N)=O)C(=O)N[C@@H](CC(C)C)C(=O)N[C@@H](C)C(=O)O)NC(=O)[C@H](Cc4c[nH]c5ccccc45)NC(=O)[C@H](CCC(N)=O)NC(=O)[C@H](CC(=O)O)NC(=O)[C@H](CCCCN)NC(=O)[C@H](CCCNC(=N)N)NC(=O)[C@H](CO)NC(=O)[C@H](CSSC[C@H](NC(=O)[C@H](CO)NC(=O)[C@H](CO)NC(=O)[C@H](Cc4ccccc4)NC1=O)C(=O)N[C@@H](CC(=O)O)C(=O)N1CCC[C@H]1C(=O)N[C@@H](CC(N)=O)C(=O)N[C@@H](CC(N)=O)C(=O)N[C@@H](CC(=O)O)C(=O)N[C@@H](CCCCN)C(=O)N3)NC(=O)[C@H](CCCCN)NC(=O)[C@H](CCCNC(=N)N)NC(=O)[C@H](CC(N)=O)NC(=O)[C@@H]1CCCN1C2=O` [Peptide W35A] (H-GDDCLGMFSSCDPNNDKCCPNRKCSRKDQWCKYQLA-OH; disulfide 4-19, 11-24, 18-31) are more than 1000 nM and more than 1000 nM.
The corresponding values for `CSCC[C@@H]1NC(=O)CNC(=O)[C@H](CC(C)C)NC(=O)[C@@H](NC(=O)[C@H](CC(=O)O)NC(=O)[C@H](CC(=O)O)NC(=O)CN)CSSC[C@@H]2NC(=O)[C@@H]3CSSC[C@@H](C(=O)N[C@@H](CCCCN)C(=O)N[C@@H](C)C(=O)N[C@@H](CCC(N)=O)C(=O)N[C@@H](CC(C)C)C(=O)N[C@@H](Cc4c[nH]c5ccccc45)C(=O)O)NC(=O)[C@H](Cc4c[nH]c5ccccc45)NC(=O)[C@H](CCC(N)=O)NC(=O)[C@H](CC(=O)O)NC(=O)[C@H](CCCCN)NC(=O)[C@H](CCCNC(=N)N)NC(=O)[C@H](CO)NC(=O)[C@H](CSSC[C@H](NC(=O)[C@H](CO)NC(=O)[C@H](CO)NC(=O)[C@H](Cc4ccccc4)NC1=O)C(=O)N[C@@H](CC(=O)O)C(=O)N1CCC[C@H]1C(=O)N[C@@H](CC(N)=O)C(=O)N[C@@H](CC(N)=O)C(=O)N[C@@H](CC(=O)O)C(=O)N[C@@H](CCCCN)C(=O)N3)NC(=O)[C@H](CCCCN)NC(=O)[C@H](CCCNC(=N)N)NC(=O)[C@H](CC(N)=O)NC(=O)[C@@H]1CCCN1C2=O` [Peptide Y32A] (H-GDDCLGMFSSCDPNNDKCCPNRKCSRKDQWCKAQLW-OH; disulfide 4-19, 11-24, 18-31) are more than 1000 nM and more than 1000 nM.
For the molecule `CC[C@H](C)[C@@H]1NC(=O)CNC(=O)[C@H](CC(C)C)NC(=O)[C@@H](NC(=O)CNC(=O)CN)CSSC[C@@H]2NC(=O)[C@@H]3CSSC[C@@H](C(=O)N[C@@H](CCCCN)C(=O)N[C@@H](Cc4c[nH]c5ccccc45)C(=O)N[C@@H](CCCCN)C(=O)N[C@@H](CC(C)C)C(=O)N[C@@H](Cc4c[nH]c5ccccc45)C(=O)O)NC(=O)[C@H](Cc4c[nH]c5ccccc45)NC(=O)[C@H](CCCNC(=N)N)NC(=O)[C@H](Cc4c[nH]cn4)NC(=O)[C@H](CCCCN)NC(=O)[C@H](CCCCN)NC(=O)[C@H](CO)NC(=O)[C@H](CSSC[C@H](NC(=O)[C@H](CO)NC(=O)[C@H](CO)NC(=O)[C@H](C)NC1=O)C(=O)N[C@@H](CC(=O)O)C(=O)N1CCC[C@H]1C(=O)N[C@@H](CCC(=O)O)C(=O)N[C@@H](CC(N)=O)C(=O)N[C@@H](CC(=O)O)C(=O)N[C@@H](CCCCN)C(=O)N3)NC(=O)[C@H](C(C)C)NC(=O)[C@H](CCCNC(=N)N)NC(=O)[C@H](CC(N)=O)NC(=O)[C@H](Cc1ccc(O)cc1)NC2=O` [Tap1a-OPT2] (H-GGCLGIASSCDPENDKCCYNRVCSKKHRWCKWKLW-OH; disulfide 3-18, 10-23, 17-30), the half-inhibitory concentration (IC50) in experiment [3] is 96 ± 9 nM; in [4] (N = 3-4, read-out: IC50 ± SEM, NaV1.5) it was more than 1000 nM; in [5] (N = 4, read-out: IC50 ± SEM, NaV1.4), more than 1000 nM; in experiment [6], 43 ± 5 nM; in experiment [7], 75 ± 11 nM; in [1] (N = 4-5, SEM, read-out: IC50 ± SEM, NaV1.1), 54 ± 9 nM. Moreover, the IC50 in experiment [2] (N = 3-4, SEM, read-out: IC50 ± SEM, NaV1.7) stood at 35 ± 2 nM. Moreover, the “inhibition of NaV1.5, in words” value in [4] is “did not significantly inhibit”. Moreover, the “inhibition of NaV1.4, in words” value in experiment [5] was “did not significantly inhibit”. For the same molecule, in experiment [5], the “loss of activity for NaV1.4 compared to Tap1a-OPT1” value was “at least 10 fold”. The “loss of activity for NaV1.7 compared to Tap1a-OPT1” value in experiment [2] was 2 fold.
For `COC(=O)C1=C(C)NC(C)=C(C(=O)OC)C1c1ccccc1[N+](=O)[O-]` [nifedipine], the “effect on potassium currents of cells transfected with the chimera KV2.1/NaV1.1 VSDII” value in [8] is recorded as “sensitive”. For the same molecule, in experiment [9], the “effect on endogenous potassium currents of non-transfected HEK293 cells” value is listed as “inhibited”.

By IC50 is commonly meant the midpoint of a concentration-inhibition curve.
